Common to all, as to assay: Minimum Inhibitory Concentration (MIC) test, growth inhibition in 96 well plates
Holding throughout (format): cell-based

Test [1] has as its system Candida albicans. To be noted: lowest concentration with complete growth inhibition, optical density, substances solved in DMSO; for MIC: Candida albicans, read-out: MIC in ppm Candida albicans. Here is the method:
(§1) The Minimum Inhibitory Concentration (MIC) test is a test on growth inhibition. The estimation of MICs is executed in 96 well plates. Through the comparison of bacterial growth with positive and negative controls via optical density (OD), different concentrations of given test substances are evaluated. Bacteria were cultivated under adjusted conditions based on information of the German Collection of Microorganisms and Cell Cultures (DSMZ) and stored in 10% or 50% glycerol prior to use. Afterwards, the following method was applied: Growth medium (according to microorganism) was added to each well of the microplate. Then, the test-substances, solved in DMSO, were added in different concentrations, positive controls (water controls only with medium), solvent controls (DMSO controls only with medium), and negative controls (benchmarks according to organism). Finally, the microorganisms were added in a concentration of 1 to 6×10^6 CFU/ml (CFU=colony forming units). The incubation of the microplates was carried out at appropriate conditions. According to the resulting growth, substance concentrations are labelled either as inhibiting or not and MIC is defined as the lowest concentration where a complete growth inhibition is visible. Experiments at concentration limits (highest concentration labelled as growth and lowest concentration labelled as inhibiting) are performed at least twice. The synergistic activity of NxtSolv 320 (Ethyl propylene glycol acetal levulinate) and Nxt Solv 420 (Ethyl glycerine acetal levulinate) in combination with different antimicrobial compounds was determined by measuring the Minimum Inhibitory Concentrations (MIC) according to the method as described above. […] In special occasions, intermediate dilution steps were performed to further improve the MIC resolution. […] To verify that the tested combinations act synergistically against microorganisms, corresponding experiments were conducted with Staphylococcus aureus, Candida albicans, Aspergillus brasiliensis, Pseudomonas aeruginosa and Escherichia coli. […] In order to calculate the synergy index with MIC values, the Kull equation was used as follows: […]

Test [2] deals with Escherichia coli. To be noted: lowest concentration with complete growth inhibition, optical density, substances solved in DMSO; for MIC: Escherichia coli, read-out: MIC in ppm Escherichia coli. Here is the method:
as §1

The subject of test [3] is Aspergillus brasiliensis. To be noted: lowest concentration with complete growth inhibition, optical density, substances solved in DMSO; for MIC: Aspergillus brasiliensis, read-out: MIC in ppm Aspergillus brasiliensis. Here is the method: as §1
For test [4], the system named is Pseudomonas aeruginosa. To be noted: lowest concentration with complete growth inhibition, optical density, substances solved in DMSO; for MIC: Pseudomonas aeruginosa, read-out: MIC in ppm Pseudomonas aeruginosa. Here is the method: as §1
Test [5] relates to Staphylococcus aureus. To be noted: lowest concentration with complete growth inhibition, optical density, substances solved in DMSO; for MIC: Staphylococcus aureus, read-out: MIC in ppm Staphylococcus aureus. Here is the method: as §1

By MIC is commonly meant the lowest concentration found to suppress growth. In the case of `CCOC(=O)CCC1(C)OCC(CO)O1` (centres unmarked) [Ethyl glycerine acetal levulinate, ethyl glycerine acetal levulinate], the MIC in test [1] was 25 mg/mL; in test [2], 25 mg/mL; in test [3], 15 mg/mL; in test [4], 35 mg/mL; in test [5] it was 17.5 mg/mL.
On to `CCCC(O)CO` (centres unmarked) [1,2-Pentanediol], for which the MIC came to 12.5 mg/mL in test [1]; 15 mg/mL in test [2]; 17.5 mg/mL in test [3]; 30 mg/mL in test [4]; 35 mg/mL in test [5].
Consider `CCCCC(CC)COCC(O)CO` (centres unmarked) [Ethylhexylglycerin], for which the “MIC in ppm Candida albicans” value in test [1] is recorded as 1,000 ppm. Further, the “MIC in ppm Escherichia coli” value in test [2] is 2,500 ppm. The “MIC in ppm Aspergillus brasiliensis” value in test [3] is 1,000 ppm. Further, the “MIC in ppm Pseudomonas aeruginosa” value in test [4] is listed as 50,000 ppm. In addition, in test [5], the “MIC in ppm Staphylococcus aureus” value is 1,000 ppm.
Take `CC(=O)c1ccc(O)cc1` [4-Hydroxyacetophenone]: the “MIC in ppm Candida albicans” value in test [1] was 6,000 ppm. In addition, in test [2], the “MIC in ppm Escherichia coli” value is reported as 2,500 ppm. For the same compound, in test [3], the “MIC in ppm Aspergillus brasiliensis” value is listed as 2,500 ppm. The “MIC in ppm Pseudomonas aeruginosa” value in test [4] is on record as 4,000 ppm. Moreover, the “MIC in ppm Staphylococcus aureus” value in test [5] is 5,000 ppm.

Source of the values: US20250270182A1, “Composition Comprising an Antimicrobial Agent and an Alkyl Ketal Ester Compound” (Symrise AG, priority 2022, published 2025).
